The test system of data set [1] is Vg9Vd2 cells. The data set is described as follows: EC50 of BrHPP for triggering Vg9Vd2 cells. In kind it is cell-based. On the procedure:
(§1) In vitro, we and others (Lang, 1995) have shown that the activation of Vg9Vd2 cells occurs within minutes after the addition of the molecule. Two mechanisms may prevent the molecule to be active in vivo i) the likely rapid renal clearance of such a small molecule and ii) a degradation process in vivo. […] Nevertheless, the concentration of the molecule, injected by intravenous route in relatively high amount, should be maintained beyond the 20 nM EC50 for a significant time, if no additional, blood cell or organ related degradation process occurs in vivo.

Data set [2] is described as follows: Half life of the molecule in primate sera. In kind it is in vitro ADME. The conditions noted are these: 37° C. How it is done: as §1
Data set [3] concerns Vγ9Vδ2 T cells. Kind of data set: Phosphostim (BrHPP) i.v. pharmaco-dynamic GLP study in cynomolgus monkeys. In kind it is in vivo. How it is done: The objective of this GLP study was to explore further the pharmaco-dynamic properties of Phosphostim (BrHPP, 200 mg; GMP batch) alone and in combination with IL-2 following several i.v. administrations to cynomolgus monkeys. In particular, this study was planned to evaluate: • A dose-effect relationship between Phosphostim injection and γδ T cell peripheral amplification; • The pharmaco-dynamic effect of a second, third and up to fifth administration of Phosphostim in male and female animals; • The functionality of in vivo induced γδ T cells, by dosing systemic cytokines after Phosphostim treatment; • The effect of treatment with IL-2 alone and to validate the selected dose of 0.6 million IU/day/animal.
Phosphostim was administered i.v., as slow infusions (50 ml in 30 minutes), at various dose levels to five groups of two animals (one male+one female). Males received two successive injections of BrHPP (Day 0 and Day 22) before sacrifice and females four injections (Days 0, 22, 52 and 84). Two females, selected upon their level of response to the 4th treatment, received a supplementary injection of BrHPP alone at Day 91, during γδ cell peripheral increase, for systemic cytokine dosages.
The administration schedule of the test product can be summarized as follows in Table 1:
The dose levels in Table 1 are can be converted to BrHPP pure (anionic) form equivalent by multiplying each dose by 0.6. Thus, the doses of 0.2, 4, 20, 50, 80, 120 and 160 mg/kg in Table 1 are equivalent respectively to 0.12, 2.4, 12, 30, 48, 72 and 96 mg/kg of anionic form BrHPP. • IL-2 was administered s.c. at the following frequency: from Day 0 to Day 6 and from Day 22 to Day 28 for all animals; from Day 52 to 58 and from Day 84 to Day 90 for all the females. IL-2 was administered as two separate s.c. injections approximately 8 hours apart of 0.3 million IU, corresponding to 0.6 million IU/day/animal.

Data set [4] is described as follows: Two week repeated dose toxicity study in rats, i.v. BrHPP. In kind it is in vivo, Sprague-Dawley rats. How it is done:
The objective of this GLP study was to evaluate the potential toxicity of BrHPP following daily i.v. administration in rats for two weeks. 116 Sprague-Dawley rats were allocated into four groups: one control group (Group 1) with 10 males and 10 females and three treatment groups (Groups 2 to 4) with 10 males and 10 females. Group 2, 3 and 4 were administered respectively 80, 150 and 300 mg/kg/day (respectively 48, 90 and 180 mg/kg in anionic form equivalent) of BrHPP. […] Satellite animals were allocated for toxico-kinetics purposes.
BrHPP was administered daily by slow intravenous injection (0.4 mL/min) as a solution in sterile water for injection and Ringer lactate at the dose levels of 80, 150 or 300 mg/kg/day. The control group received the vehicle (together with 1% sodium to reach an osmolarity similar to the high-dose group dosage forms) under the same experimental conditions. A constant dosage-volume of 5 mL/kg was used.
The animals were checked daily for mortality and clinical signs. Body weight and food consumption were recorded twice a week. Opthalmologic examination was performed before and at the end of the treatment period. Blood samples for determination of levels of BrHPP were taken from satellite animals on Day 1 and at the end of the treatment period. Vaginal lavage was performed in females during pre-treatment and at the end of the treatment period for monitoring of estrous cycle. Hematological, blood biochemical and urinalysis investigations were performed on all principal animals at the end of week 2. On completion of the study, all animals were killed and subjected to a macroscopic post mortem examination and specified organs were weighed and preserved. Microscopic examination was performed on selected tissues from animals of the control and the 300 mg/kg/day groups.

The subject of data set [5] is Vγ9Vδ2 T cells. The data set is described as follows: Expansion of peripheral blood Vγ9Vδ2 T cells from PBMCs of mRCC patients with BrHPP and IL2. It counts as cell-based, human. The conditions noted are these: 3 μM BrHPP + IL2, 15 days; 7 patients out of 12. On the procedure: Blood samples from 12 RCC patients (50 ml) were collected just before or no more than 2 months after the nephrectomy. PBMCs were isolated by centrifugation on Ficoll-Hypaque density gradient (Amersham Biosciences). PBMCs from one healthy volunteer was used as control.
Ten million PBMCs were cultured at 2×10^6/ml in 24 well plate in RPMI 1640 supplemented with 10% v/v fetal calf serum (Fetal Clone irradiated, Hyclone).
Polyclonal Vγ9Vδ2 T cell lines were specifically expanded in presence of 3 μM BrHPP molecule (batch INPA-0214) and 100 IU/ml IL2 during 15 days.
Every three days, the volume corresponding to half culture medium was replaced by fresh medium containing only 200 IU/ml IL2
Before in vitro culture, phenotype of 2×10^5 PBMCs from RCC patients was analyzed using the following combinations of fluorescein isothiocyanate (FITC), phycoerythrin (PE) and phycoreythrin-cyanin 5 (PC5) conjugated antibodies to determine the NK, αβ and γδ T cells population (all purchased from Beckman-Coulter): CD3-PC5/Vδ2-FITC/IgG1-PE, CD8-PE, CD56-PE. At day 15 of the culture, a triple staining was performed on the expanded Vδ9Vδ2 T cells bulk. The following antibodies combinations were performed: […]

The term EC50 denotes the midpoint of the concentration-response curve. A higher EC50 goes with a less potent agent. “3-(bromomethyl)-3-butanol-1-yl-diphosphate [BrHPP]”: in data set [1], the EC50 amounted to 0.02 µM. The “half life of the molecule in primate sera” value in data set [2] is on record as “about one”. Moreover, the “γδ cell number increase” value in data set [3] (20 mg/kg (12 mg/kg anionic form) + IL-2) came out at 20 fold. Besides, the “increase in circulating γδ cell count” value in data set [3] (at around 120 mg/kg (EC50) + IL-2) came out at 100 fold. In data set [3] (highest tested dose + IL-2), the “circulating Vγ9Vδ2 T cells vs before treatment” value turned out to be 200 fold and the “share of circulating Vγ9Vδ2 T cells in peripheral lymphocytes” value is reported as “represented the majority of peripheral lymphocytes”. Also, in data set [3] (i.v. + IL-2), the “estimated EC50 value in vivo, anionic form BrHPP” value is about 72 mg/kg and the “estimated EC50 value of BrHPP in vivo” value is listed as “around 120 mg/kg”. In data set [3] (i.v. + IL-2, Day 7), the “first slightly efficient tested dose” value was 4 mg/kg and the “first slightly efficient tested dose, anionic form BrHPP” value was determined as 2.4 mg/kg. The “microscopic examination, other organs and tissues” value in data set [4] (300 mg/kg/day) was “No relevant findings were seen in other organs and tissues”. Also, the opthalmologic findings entry in data set [4] (300 mg/kg/day, end of treatment) is given as “No relevant opthalmologic findings”. For the same substance, the mortality result in data set [4] (80, 150, 300 mg/kg/day i.v. two weeks) was “No unscheduled death occurred”. Moreover, the “clinical signs during dosing” value in data set [4] (150 and 300 mg/kg/day) is “Vocalization during dosing was noted on many occasions”. For the same substance, in data set [4] (both control and BrHPP-treated, attributed to mechanical injury), the “microscopic examination, tail vein” value is on record as “slight changes were observed in the tail vein”. Besides, in data set [4] (end of treatment), the macroscopic post-mortem examination result was “No relevant findings were noted” and the organ weights result is given as “No relevant differences in organ weights from controls”. In data set [4] (end of week 2), the “hematological, biochemical or urinary parameter” value is “No changes of toxicological significance”. Moreover, the “mean body weight gain” value in data set [4] (females) is “Dose-related higher mean body weight gain”. Also, in data set [4] (highest tested dose), the “NOAEL in anionic form equivalent” value is recorded as 180 mg/kg and the “No Observed Adverse Effect Level (NOAEL)” value is recorded as 300 mg/kg/day. For the same substance, the “patients presenting a Vγ9Vδ2 T cells amplification” value in data set [5] is given as 58%.

These data come from patent publication US20100254940A1, “Compositions and Methods for Regulating an Immune Response in a Subject” (INNATE PHARMA, S.A., priority 2002, published 2010).
